# Target: Arabidopsis thaliana SHMT
# Experiment: SHMT activity assay (ED50 SHMT), coupled with N5,N10-CH2-THF dehydrogenase, NADH at 340 nm
# Assay type: biochemical
# Conditions: Table 2; values given as upper bounds
# Protocol: Determination of the ED50 SHMT was carried out as described hereinunder.
# Purification of Arabidopsis thaliana SHMT
# The following buffers were used during the purification protocol:
# Buffer A (Lysis and Wash Buffer): • 20 mM Na-Phosphat (pH 7,4) • 500 mM NaCI • 40 mM Imidazole • 1.0 mM L-Serine • 0.5 mM Pyridoxal-5-phosphate • 0.5 mM DTT
# Buffer B (Elution Buffer): • 20 mM Na-Phosphat (pH 7,4) • 500 mM NaCl • 250 mM Imidazole • 1.0 mM L-Serine • 0.5 mM Pyridoxal-5-phosphate • 0.5 mM DTT
# All procedures were conducted at 4° C. or on ice. Pellets were suspended in Buffer A containing 1 mg/ml DNAse +Complete EDTA-free protease inhibitor tablet. Cells were lysed using sonication or a French Press device, using standard settings. Lysis was centrifuged at 40000×g for 25 minutes. The supernatant was filtered (0.22 μM) before loading onto a Ni-NTA column.
# A gravity flow column containing Ni-NTA resin was equilibrated with 10 CV Buffer A and loaded with filtered cell lysate. The column was then washed with 10 CV Buffer A. Elution was afforded using Buffer B and collected manually as mini-factions. EDTA was added after elution to a final concentration of 1 mM. Fractions were pooled on the basis of the correct band for SHMT visualised via SDS-PAGE and staining.
# SHMT Assay Buffer: • 50 mM KH2PO4 (pH 7,4) • 2.0 mM NAD+ • 7.5 mM DTT • 0.3 mM Tetrahydrofolic acid • 4% DMSO
# Reaction Start: 20 mM L-Serine
# The rate of N5,N10-CH2-THF formation catalyzed by SHMT was monitored at 340 nm by coupling with excess N5,N10-CH2-THF dehydrogenase, which converts NAD+to NADH. Reactions were initiated by adding 20 mM L-Serine. Inhibition of initial velocity was determined by adding various inhibitors of the SHMT reaction and monitored as described. Reactions were measured in a Bio Tek micro titer plate reader following the change in absorption with the formation of NADH for 30 mimnutes.
row,EC50 [nM],Compound
1,< 1000,CCC1(c2ccc(O)c(C)c2)C(C#N)=C(N)Oc2[nH]nc(C)c21 (stereo not shown) [Compound 2.25.]
2,< 10000,CCC1(c2ccc(OS(=O)(=O)CC)cc2)C(C#N)=C(N)Oc2[nH]nc(C)c21 (stereo not shown) [Compound 2.26.]
3,< 1000,CCC1(c2ccc(OCc3ccccc3)cc2)C(C#N)=C(N)Oc2[nH]nc(C)c21 (stereo not shown) [Compound 2.28.]
4,< 10000,CCC1(c2ccc(C(F)(F)F)c(F)c2)C(C#N)=C(N)Oc2[nH]nc(C)c21 (stereo not shown) [Compound 2.29.]
5,< 10000,CCC1(c2ccc(C(F)(F)F)cc2)C(C#N)=C(N)Oc2[nH]nc(C)c21 (stereo not shown) [Compound 2.30.]
6,< 1000,CCC1(c2cccc(C(F)(F)F)c2)C(C#N)=C(N)Oc2[nH]nc(C)c21 (stereo not shown) [Compound 2.31.]
7,< 10000,CCC1(c2ccc(OC(F)F)cc2)C(C#N)=C(N)Oc2[nH]nc(C)c21 (stereo not shown) [Compound 2.32.]
8,< 100,CCC1(c2cc(F)cc(C(F)(F)F)c2)C(C#N)=C(N)Oc2[nH]nc(C)c21 (stereo not shown) [Compound 2.33.]
9,< 10000,CCC1(c2cc(F)c(O)c(F)c2)C(C#N)=C(N)Oc2[nH]nc(C)c21 (stereo not shown) [Compound 2.34.]
10,< 1000,CCC1(c2cccc(-c3ccccc3)c2)C(C#N)=C(N)Oc2[nH]nc(C)c21 (stereo not shown) [Compound 2.35.]
11,< 10000,CCCCCCOc1ccc(C2(CC)C(C#N)=C(N)Oc3[nH]nc(C)c32)cc1 (stereo not shown) [Compound 2.36.]
12,< 1000,CCC1(c2ccc(O)c([N+](=O)[O-])c2)C(C#N)=C(N)Oc2[nH]nc(C)c21 (stereo not shown) [Compound 2.37.]
13,< 10000,CCC1(c2ccc(NC(=O)C(C)(C)C)cc2)C(C#N)=C(N)Oc2[nH]nc(C)c21 (stereo not shown) [Compound 2.39.]
14,< 1000,CCC1(c2ccc([N+](=O)[O-])cc2)C(C#N)=C(N)Oc2[nH]nc(C)c21 (stereo not shown) [Compound 2.40.]
15,< 1000,CCC1(c2ccc(-c3ccccc3F)cc2)C(C#N)=C(N)Oc2[nH]nc(C)c21 (stereo not shown) [Compound 2.44.]
16,< 1000,CCC1(c2cc(F)c(OC)c(F)c2)C(C#N)=C(N)Oc2[nH]nc(C)c21 (stereo not shown) [Compound 2.45.]
17,< 1000,Cc1n[nH]c2c1C(c1ccc(Cl)cc1)(C1CC1)C(C#N)=C(N)O2 (stereo not shown) [Compound 2.46.]
18,< 100,CCC1(c2cc(C(F)(F)F)cc(C(F)(F)F)c2)C(C#N)=C(N)Oc2[nH]nc(C)c21 (stereo not shown) [Compound 2.47.]
19,< 10000,CCC1(c2ccc(OC(=O)c3c(Cl)cccc3Cl)c(C)c2)C(C#N)=C(N)Oc2[nH]nc(C)c21 (stereo not shown) [Compound 2.48.]
20,< 1000,CCC1(c2ccc(OC(=O)c3ccccc3)c(C)c2)C(C#N)=C(N)Oc2[nH]nc(C)c21 (stereo not shown) [Compound 2.49.]
21,< 1000,CCC1(c2ccc(OC(=O)C(C)(C)C)c(C)c2)C(C#N)=C(N)Oc2[nH]nc(C)c21 (stereo not shown) [Compound 2.52.]
22,< 1000,CCC1(c2ccc(OS(=O)(=O)C(C)C)c(C)c2)C(C#N)=C(N)Oc2[nH]nc(C)c21 (stereo not shown) [Compound 2.54.]
23,< 1000,CCC1(c2ccc(OS(=O)(=O)Cc3ccccc3)c(C)c2)C(C#N)=C(N)Oc2[nH]nc(C)c21 (stereo not shown) [Compound 2.55.]

row,EC50 [nM],Compound
1,< 10000,CCC1(c2ccc(OS(=O)(=O)c3ccc(Cl)c(Cl)c3)c(C)c2)C(C#N)=C(N)Oc2[nH]nc(C)c21 (stereo not shown) [Compound 2.56.]
2,< 10000,CCC1(c2ccc(OS(=O)(=O)c3ccc(Cl)cc3)c(C)c2)C(C#N)=C(N)Oc2[nH]nc(C)c21 (stereo not shown) [Compound 2.57.]
3,< 1000,CCC1(c2ccc(OS(=O)(=O)c3ccccc3)c(C)c2)C(C#N)=C(N)Oc2[nH]nc(C)c21 (stereo not shown) [Compound 2.58.]
4,< 10000,CCC1(c2ccc(OS(=O)(=O)c3ccc(Cl)cc3Cl)c(C)c2)C(C#N)=C(N)Oc2[nH]nc(C)c21 (stereo not shown) [Compound 2.59.]
5,< 1000,Cc1n[nH]c2c1C(c1cccc(C(F)(F)F)c1)(C1CC1)C(C#N)=C(N)O2 (stereo not shown) [Compound 2.60.]
6,< 1000,Cc1n[nH]c2c1C(c1cc(Cl)cc(Cl)c1)(C1CC1)C(C#N)=C(N)O2 (stereo not shown) [Compound 2.61.]
7,< 10000,CCC1(c2cc(Cl)cc(Cl)c2)C(C#N)=C(N)Oc2[nH]ncc21 (stereo not shown) [Compound 2.62.]
8,< 10000,CCC1(c2cccc(C(F)(F)F)c2)C(C#N)=C(N)Oc2[nH]ncc21 (stereo not shown) [Compound 2.63.]
9,< 1000,CCC1(c2cc(C(F)(F)F)cc(C(F)(F)F)c2)C(C#N)=C(N)Oc2[nH]ncc21 (stereo not shown) [Compound 2.64.]
10,< 1000,CCC1(c2ccc(F)c(C(F)(F)F)c2)C(C#N)=C(N)Oc2[nH]nc(C)c21 (stereo not shown) [Compound 2.65.]
11,< 1000,Cc1n[nH]c2c1C(c1cccc([N+](=O)[O-])c1)(C(F)(F)F)C(C#N)=C(N)O2 (stereo not shown) [Compound 2.68.]
12,< 1000,CCC1(c2ccc(NC(=O)OC)cc2)C(C#N)=C(N)Oc2[nH]nc(C)c21 (stereo not shown) [Compound 2.80.]
13,< 1000,CCC(=O)Nc1ccc(C2(CC)C(C#N)=C(N)Oc3[nH]nc(C)c32)cc1 (stereo not shown) [Compound 2.81.]
14,< 1000,CCC1(c2cc(C(F)(F)F)cc(C(F)(F)F)c2)C(C#N)=C(N)Oc2[nH]nc(COC)c21 (stereo not shown) [Compound 2.82.]
15,< 1000,CCCc1n[nH]c2c1C(CC)(c1cc(C(F)(F)F)cc(C(F)(F)F)c1)C(C#N)=C(N)O2 (stereo not shown) [Compound 2.83.]
16,< 100,CCc1n[nH]c2c1C(CC)(c1cc(C(F)(F)F)cc(C(F)(F)F)c1)C(C#N)=C(N)O2 (stereo not shown) [Compound 2.84.]
17,< 10000,CCCc1n[nH]c2c1C(CC)(c1cccc(Cl)c1)C(C#N)=C(N)O2 (stereo not shown) [Compound 2.85.]
18,< 1000,CCC1(c2cc(Oc3ccccc3)cc(C(F)(F)F)c2)C(C#N)=C(N)Oc2[nH]nc(C)c21 (stereo not shown) [Compound 2.86.]
19,< 10000,Cc1n[nH]c2c1C(c1cccc(Cl)c1)(C(F)(F)F)C(C#N)=C(N)O2 (stereo not shown) [Compound 2.87.]
20,< 1000,Cc1n[nH]c2c1C(c1cc(Cl)cc(Cl)c1)(C(F)(F)F)C(C#N)=C(N)O2 (stereo not shown) [Compound 2.88.]
21,< 1000,CCCC1(c2cc(Cl)cc(Cl)c2)C(C#N)=C(N)Oc2[nH]nc(C)c21 (stereo not shown) [Compound 2.89.]
22,< 1000,CCCC1(c2ccc(Cl)c(Cl)c2)C(C#N)=C(N)Oc2[nH]nc(C)c21 (stereo not shown) [Compound 2.90.]
23,< 1000,CCCC1(c2cccc(Cl)c2)C(C#N)=C(N)Oc2[nH]nc(C)c21 (stereo not shown) [Compound 2.94.]

row,EC50 [nM],Compound
1,< 1000,Cc1n[nH]c2c1C(c1cccc(C(F)(F)F)c1)(C(F)(F)F)C(C#N)=C(N)O2 (stereo not shown) [Compound 2.95.]
2,< 1000,Cc1n[nH]c2c1C(c1ccc(Cl)cc1)(C(F)(F)C(F)(F)F)C(C#N)=C(N)O2 (stereo not shown) [Compound 2.96.]
3,< 1000,CCc1n[nH]c2c1C(CC)(c1cccc(C(F)(F)F)c1)C(C#N)=C(N)O2 (stereo not shown) [Compound 2.98.]
4,< 10000,Cc1n[nH]c2c1C(CCC#N)(c1cccc(Cl)c1)C(C#N)=C(N)O2 (stereo not shown) [Compound 2.100.]
5,< 10000,Cc1n[nH]c2c1C(CCC(F)(F)F)(c1cccc(C(F)(F)F)c1)C(C#N)=C(N)O2 (stereo not shown) [Compound 2.101.]
6,< 1000,CCc1n[nH]c2c1C(c1cccc(C(F)(F)F)c1)(C1CC1)C(C#N)=C(N)O2 (stereo not shown) [Compound 2.104.]
7,< 10000,CCC1(c2cccc(Cl)c2)C(C#N)=C(N)Oc2[nH]nc(CCC(F)F)c21 (stereo not shown) [Compound 2.105.]
8,< 10000,CCC1(c2cccc(C(F)(F)F)c2)C(C#N)=C(N)Oc2[nH]nc(CCC(F)F)c21 (stereo not shown) [Compound 2.106.]
9,< 1000,CCC1(c2cc(C(F)(F)F)cc(C(F)(F)F)c2)C(C#N)=C(N)Oc2[nH]nc(CCC(F)F)c21 (stereo not shown) [Compound 2.107.]
10,< 100,Cc1n[nH]c2c1C(CC(C)C)(c1cc(C(F)(F)F)cc(C(F)(F)F)c1)C(C#N)=C(N)O2 (stereo not shown) [Compound 2.108.]
11,< 1000,CCc1n[nH]c2c1C(CC)(c1cc(Cl)cc(Cl)c1)C(C#N)=C(N)O2 (stereo not shown) [Compound 2.109.]
12,< 1000,CCCc1n[nH]c2c1C(CC)(c1cc(Cl)cc(Cl)c1)C(C#N)=C(N)O2 (stereo not shown) [Compound 2.110.]
13,< 10000,Cc1cc(C2(C3CC3)C(C#N)=C(N)Oc3[nH]nc(C)c32)ccc1O (stereo not shown) [Compound 2.111.]
14,< 10,Cc1n[nH]c2c1C(c1cc(Cl)cc(Cl)c1)(C(C)C)C(C#N)=C(N)O2 (stereo not shown) [Compound 2.112.]
15,< 100,CCC1(c2cc(Cl)cc(Oc3ccccc3)c2)C(C#N)=C(N)Oc2[nH]nc(C)c21 (stereo not shown) [Compound 2.113.]
16,< 100,CCc1n[nH]c2c1C(c1ccc(Cl)cc1)(C1CC1)C(C#N)=C(N)O2 (stereo not shown) [Compound 2.114.]
17,< 100,CCCc1n[nH]c2c1C(c1ccc(Cl)cc1)(C1CC1)C(C#N)=C(N)O2 (stereo not shown) [Compound 2.115.]
18,< 1000,CCC1(c2cccc(Cl)c2)C(C#N)=C(N)Oc2[nH]nc(C(C)C)c21 (stereo not shown) [Compound 2.116.]
19,< 10000,CCC1(c2cccc(Cl)c2)C(C#N)=C(N)Oc2[nH]nc(C3CC3)c21 (stereo not shown) [Compound 2.117.]
20,< 1000,CCC1(c2cccc(C(F)(F)F)c2)C(C#N)=C(N)Oc2[nH]nc(C(C)C)c21 (stereo not shown) [Compound 2.118.]
21,< 1000,CCC1(c2cccc(C(F)(F)F)c2)C(C#N)=C(N)Oc2[nH]nc(C3CC3)c21 (stereo not shown) [Compound 2.119.]

# Reference: patent publication US9480259B2, “Pyrazolopyrans having herbicidal and pharmaceutical properties” (BASF SE, priority 2012, dated 2016)
